Data set [1] concerns Aβ1-42WT toxicity in SH-SY5Y cells. Kind of data set: Inhibition of the toxicity induced by Aβ1-42WT in SH-SY5Y cell cultures (MTT test). It is filed as cell-based, human. As to conditions: differentiated SH-SY5Y, co-incubated with Aβ1-42WT, 24 h. The protocol:
Figure 2 Analysis of the effects of Aβ1-6WT(D), Aβ1-6A2V(D) and Aβ1-6A2VTAT(D) on neurotoxicity in cell models. SH-SY5Y cells were differentiated with 10 μM retinoic acid. After 6 days the proper peptide was added to culture medium and cell viability was assessed after 24 h by MTT test. […] Conversely, Aβ1-42WT reduces cell viability by 35%. * Significance vs non-treated cells. (C,D) Both Aβ1-6WT(D) and Aβ1-6A2V(D) are able to counteract the toxic effect of Aβ1-42WT. […] Comparison of cell viability was performed by Student t-test.
Toxicity studies with Aβ1-6WT(D), Aβ1-6A2V(D) or Aβ1-6A2VTAT(D) and the short peptides’ ability to inhibit the toxicity induced by Aβ1-42WT in SH-SY5Y cell cultures were analyzed following previously described protocols. Each experiment was performed in triplicate; the data provided were obtained as the mean of three independent assays.

Data set [2] has as its target T1, Aβ1-42WT (Homo sapiens, UniProt P05067).
T1 construct: Aβ1-42WT oligomers were formed following incubation of Aβ1-42WT at a final concentration of 100 μM; made in house; host or cells: chemical synthesis (solid-phase Fmoc), no expression host
Nature of the data set: Polarized light and electron microscopy of Aβ1-42WT aggregates. It counts as biochemical. Particulars: 20 days incubation, 37 °C, molar ratio 1:1 or 1:4. The protocol:
Figure 3 Inhibition of aggregation of Aβ1-42WT by Aβ1-6A2VTAT(D). Polarized-light (A,B), electron microscopy (C,D) and atomic force microscopy (AFM) (E–H) studies showing the inhibitory effects of Aβ1-6A2VTAT(D) on amyloid formation, fibril production and oligomerization by Aβ1-42WT. In polarized-light and EM studies, both peptides were used at 0.125 mM, molar ratio = 1:1 or 1:4 respectively, with 20 days incubation. […] E,F: Representative Tapping mode of AFM images as determined by amplitude error data of Aβ1-42WT oligomers. Aβ1-42WT peptide 100 μM in phosphate buffer 50 mM, pH 7.4 was incubated at 4 °C for 24 h alone (E) (Z range: -10/ + 10 mV) or in presence of Aβ1-6A2VTAT(D) (F) (Z range: -10/ + 25 mV). The molar ratio of Aβ1-42WT to Aβ1-6A2VTAT(D) was 1:4. Scale bar: 1 μm, inset: 200 nm. (G,H): height plot profiles obtained along different lines traced on the topographic AFM images.
Aβ1-42WT, Aβ1-6A2VTAT(D) were dissolved in 10 mM NaOH and then diluted in an equal volume of 100 mM Tris-HCl, pH 7.0, to final concentrations (0.250 mM). […] The samples were incubated at 37 °C, and the tinctorial and ultrastructural properties of the peptide assemblies were determined at various intervals, ranging from 1 h to 20 days, as previously described. […]

Data set [3] deals with OP50 E. coli. As to conditions: peptide 1 µg/µl, 24 h, 25 °C and 37 °C, MALDI TOF MS, small fraction cleaved at Gly 11. The protocol: (§1) The stability of Aβ1-6A2VTAT(D) peptide to protease digestion was also investigated. To this end, the peptide (1µg/µl) was incubated at 37 °C with 10 ng/µl of proteinase K and in the presence of OP50 E. coli. […] Samples were potted on a metallic plate (MTP 384 Ground Steel, Bruker) before and 24 h after incubation at 25 °C and 37 °C, and analyzed by MALDI TOF mass spectrometry (MS).

For data set [4], the target named is proteinase K (Parengyodontium album, UniProt P06873). As to conditions: peptide 1 µg/µl, 10 ng/µl proteinase K, 24 h, 25 °C and 37 °C, MALDI TOF MS; small fraction cleaved at Gly 11. The protocol:
as §1

The test system of data set [5] is huAPPSwe/moAPP0/0 mice. Kind of data set: Pilot preclinical study in huAPPSwe/moAPP0/0 mice. It counts as in vivo, mouse. The protocol: Transgenic APP23 mice expressing the Swedish double mutation in the human APP gene[46] and knock-out for endogenous APP (huAPP^Swe/moAPP^0/0) were generated in our lab by crossing APP23 mice with APP^0/0 animals. Mice (n = 6) were treated intraperitoneally (i.p.) every day for 21 days with Aβ1-6A2VTAT(D) (10 mg/kg) or saline solution and culled 24 h after the last treatment.
The left hemisphere of each brain was homogenized in 7 volumes of 10 mM Tris-HCl, pH 7.4, added with cOmplete Mini Protease Inhibitors cocktail (Roche), sonicated for 1 min using an ultrasonic homogenizer (SONOPULS) and centrifuged at 100,000 xg for 1 h at 4 °C. The supernatant was saved as the soluble fraction; the pellet was extracted in 70% formic acid and neutralized with 20 volumes of 1 M Tris (insoluble fraction).
Aβ40, Aβ42 and aggregated Aβ were measured in both soluble and insoluble fractions by ELISA (Invitrogen). Each experiment was performed in triplicate. The analysis of APP processing followed the protocol described above. After centrifugation, the supernatant was collected as the SDS-soluble fraction, which was analyzed by western blot with the A8717 antibody (Sigma). Signal intensity of the bands was measured by Quantity One (BioRad).
Coronal slices of the right hemibrain were embedded in paraffin and cut (7μm); sections were de-waxed in xylene and hydrated through serial alcohols to water. After formic acid (80%) pre-treatment, sections were incubated overnight with anti-Aβ antibody (4G8, 1:4000; Covance). The primary antibody signal was detected with a biotinylated secondary antibody followed by horseradish streptavidin peroxidase and visualized with DAB. Amyloid deposition was quantified in mouse brain using Aβ immunostaining (4G8) and the staining intensity was evaluated semiquantitatively using a scale range from 0 to 5 by light microscopy. The assessment was conducted in two adjacent sections of the same brain area[49]. A parallel quantification of the Aβ plaque load was performed using image analysis software (NIS-elements-Nikon)[50][51][52].

Setting [6] is: i.p. daily for 21 days, vs saline, ELISA.

Where a SMILES comes first, the peptide text is derived from it. [ ]: non-standard residue; d: D form.

T1 sequence (P05067 672-713 limits assumed): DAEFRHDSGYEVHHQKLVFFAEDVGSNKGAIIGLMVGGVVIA
Chain of proteinase K (P06873 106-384, species assumed): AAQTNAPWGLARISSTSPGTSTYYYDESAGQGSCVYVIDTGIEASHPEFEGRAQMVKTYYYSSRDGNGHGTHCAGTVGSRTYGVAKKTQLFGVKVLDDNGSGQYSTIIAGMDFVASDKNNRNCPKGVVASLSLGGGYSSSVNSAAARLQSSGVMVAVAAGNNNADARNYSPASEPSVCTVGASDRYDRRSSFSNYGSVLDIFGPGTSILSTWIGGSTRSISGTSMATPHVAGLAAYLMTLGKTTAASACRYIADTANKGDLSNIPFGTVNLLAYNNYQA

As to `CC(C)[C@@H](NC(=O)[C@H](N)CC(=O)O)C(=O)N[C@H](CCC(=O)O)C(=O)N[C@H](Cc1ccccc1)C(=O)N[C@H](CCCNC(=N)N)C(=O)N[C@H](Cc1c[nH]cn1)C(=O)NCC(=O)NCC(=O)NCC(=O)NCC(=O)NCC(=O)N[C@H](CCCNC(=N)N)C(=O)N[C@H](CCCCN)C(=O)N[C@H](CCCCN)C(=O)N[C@H](CCCNC(=N)N)C(=O)N[C@H](CCCNC(=N)N)C(=O)N[C@H](CCC(N)=O)C(=O)N[C@H](CCCNC(=N)N)C(=O)N[C@H](CCCNC(=N)N)C(=O)N[C@H](CCCNC(=N)N)C(=O)O` [Aβ1-6A2VTAT(D)] (H-[dD][dV][dE][dF][dR][dH]GGGGG[dR][dK][dK][dR][dR][dQ][dR][dR][dR]-OH; N-terminus assumed), the “effect on toxicity induced by Aβ1-42WT” value in data set [1] is “significant dose-dependent reduction of the toxicity”. In data set [2], the “amount of fibrils generated by Aβ1-42WT (electron microscopy)” value is listed as “reduces the amount of fibrils generated by the full-length peptide” and the “formation of amyloid structures by Aβ1-42WT (polarized light)” value is “hinders the formation of amyloid structures”. Besides, in data set [3], the “resistance to digestion with bacteria proteases” value was “largely resistant”. Also, in data set [4], the “resistance to digestion with proteinase K” value is recorded as “largely resistant”. Besides, the intracerebral amyloid deposits entry in data set [5] (13-month-old mice, i.p. once a day for 3 weeks, 4G8 immunohistochemistry, plaque count) is recorded as “decrease of intracerebral amyloid deposits”. Besides, the “effects on APP processing (C99:C83 ratio), short-term” value in data set [5] (after 3 weeks of treatment, western blot) was “not observed after short-term treatment schedules”. In addition, in data set [5] (setting [6]), the “Aβ42 in the soluble fraction and Aβ40, Aβ42 and aggregated Aβ in the insoluble fraction” value is on record as “not significantly lower”; the “brain Aβ40 levels in the soluble fraction” value is “reduction of Aβ40 levels in the soluble fraction”; the “brain aggregated Aβ (soluble fraction)” value is “decrease in aggregated Aβ”.

Source of the values: publication PMC4750079, “Tackling amyloidogenesis in Alzheimer’s disease with A2V variants of Amyloid-β” (Scientific Reports, 2016).
